In the experiment the target is T1, collectin-11 (CL-11, CL-K1) (Homo sapiens, UniProt Q9BWP8).
T1 construct: gene COLEC11; recombinant homo-oligomer generated by expression of the CL-11 cDNA (isoform a)
In words: competition ELISA, rCL-11 binding to immobilised yeast invertase.

SMILES strings stand for the structures.

T1 sequence (Q9BWP8 26-271): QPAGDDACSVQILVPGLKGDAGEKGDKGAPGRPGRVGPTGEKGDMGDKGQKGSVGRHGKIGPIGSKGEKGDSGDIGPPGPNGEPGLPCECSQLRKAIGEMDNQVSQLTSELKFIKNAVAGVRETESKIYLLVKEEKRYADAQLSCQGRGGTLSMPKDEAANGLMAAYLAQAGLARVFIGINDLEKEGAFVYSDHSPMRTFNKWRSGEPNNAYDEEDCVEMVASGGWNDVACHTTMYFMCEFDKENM

By IC50 is commonly meant the concentration that inhibits the measured activity by half. A low value points to inhibition by little substance. Compound `OC[C@H]1OC(O)[C@@H](O)[C@@H](O)[C@@H]1O` (stereo partly drawn) [D-mannose] had an IC50 of 11.8 mM.
In turn, `C[C@@H]1OC(O)[C@@H](O)[C@H](O)[C@@H]1O` (stereo partly drawn) [L-fucose] showed an IC50 of 12.1 mM.

These data come from publication PMC6972607, “L‐Fucose prevention of renal ischaemia/reperfusion injury in Mice” (The FASEB Journal, 2019).
